Measured values: publication PMC10689823, “Discovery of a Drug-like, Natural Product-Inspired DCAF11 Ligand Chemotype” (Nature Communications, 2023)

What was measured:
Hep G2 cells = test: Cell viability assay (CellTiter-Glo) in Hep G2 cells; format: cell-based; conditions: Homo sapiens, HepG2, 72 h
Protocol: Jurkat cells (3 × 10^3) and Hep G2 cells (3.5 × 10^3) were seeded in 96-well plates in 100 μL culture medium. Cells were treated with compounds dissolved in 50 μl medium at the indicated concentration for 72 h, at the same time, one plate of cells without compounds treatment was used for the cell count at time zero. After adding 40 μl of CellTiter-Glo® reagent (Promega, G7571) to each well for 10 min at room temperature, the luminescence was measured on a Spark® Multimode Microplate Reader (Tecan). The data was analyzed by the GraphPad Prism 9.0.

PDEδ = PDEδ (Homo sapiens, UniProt O43924); test: PDEδ levels by Western blot in Jurkat cells; format: cell-based; design: endogenous in cells; host or cells: Jurkat; conditions: 10 μM, 6 h
DCAF11 [1] = target: T1, DCAF11 (Homo sapiens, UniProt Q8TEB1); test: Affinity-based enrichment (biotin-streptavidin pulldown) in Hep G2 cells overexpressing HA-DCAF11; format: binding; design: host or cells: Hep G2; conditions: 100 μM compound 2 pretreatment for 1 h
Protocol: Hep G2 cells (1 × 10^6 cells/well) were seeded in 6-well plates and incubated for 24 h. On the next day, the cells were transfected with 1 µg pCMV3-N-HA-DCAF11 plasmid (Sino Biological, HG16257-NY) or 1 µg empty vector (pcDNA3.1(+), Thermo Fisher, V79020) and 2.5 µL FuGENE® HD transfection reagent (Promega, E2311) per well. The cells were incubated for 48 h prior to treatment with 100 μM compound 2 for 1 h. […] The cells were washed with ice-cold PBS, then lysed in lysis buffer (150 mM sodium chloride, 1% NP-40, 50 mM TRIS-HCl, pH 8.0 with complete protease inhibitor cocktail (Roche, 11836170001)) for 30 min on ice. After centrifugation at 16,000 x g, the supernatant was transferred into a new tube and the protein concentration was determined using the DC protein assay (BIO-RAD, 5000116).
The supernatant was discarded and 1 mg of lysate in 500 µL lysis buffer was added to the beads and incubated for 1 h at room temperature with overhead rotation. The beads were washed twice with 500 µL washing buffer (50 mM PIPES (pH 7.4), 50 mM NaCl, 75 mM MgCl2, 5 mM EGTA, 0.1% NP-40, 0.1% Triton X-100, 0.1% Tween20) and twice with PBS for 10 min each at room temperature with overhead rotation. Enriched proteins were eluted by boiling of the beads at 95 °C for 5 min in 20 µL of a supersaturated (25 mM) biotin solution and visualized by Western Blotting as described above.

DCAF11 [2] = target: T1, DCAF11; test: In-gel fluorescence labelling of purified DCAF11; format: binding; conditions: purified DCAF11 pretreated with compound 2 for 40 min, then 18 for 40 min
Protocol: Purified DCAF11 protein (1 μg, Origene, TP760719) was diluted in PBS buffer that is mixed with compound 2 or BODIPY derivative 18 at the indicated concentration at room temperature. Samples were diluted with 5 × SDS sample loading buffer and heated at 95 °C for 5 min. Proteins were separated using SDS-PAGE and were visualized using the ChemiDoc MP Imaging System (BIO-RAD) at 488 nm and the results were analyzed by Image Lab (BIORAD).

BRD2 = BRD2 (Homo sapiens, UniProt P25440); test: BRD2 levels by Western blot in Hep G2 and MDA-MB-231 cells (incl. RNA interference); format: cell-based; design: endogenous in cells; host or cells: Hep G2; MDA-MB-231
Protocol: Cells were washed with PBS and lysed in lysis buffer (50 mM Tris-HCl, pH 7.4, 150 mM NaCl, 1% Triton X-100, 1% sodium deoxycholate, 0.1% SDS) with complete protease inhibitor cocktail (Roche, 11836170001) for 30 min on ice. For Ramos cells, cell pellets were lysed in lysis buffer (50 mM Tris-HCl, pH 8, 150 mM NaCl, 1% NP-40, 0.5% sodium deoxycholate) with complete protease inhibitor cocktail. After centrifugation at 16,000 x g, the supernatant was transferred into a new tube and the protein concentration was determined by DC protein assay (BIO-RAD, 5000116). Proteins were separated by SDS-PAGE and transferred to a PVDF membrane (Thermo scientific, 0.45 μm, 88518). For PDEδ, BRD2, GAPDH, BRD4, Vinculin and BTK, the membranes were blocked with Intercept® Blocking Buffer (LI-COR Biosciences, 927-70001) at room temperature for 1 h. The primary antibodies for these proteins were diluted with Intercept® Blocking Buffer (1:500 for PDEδ, 1:3000 for Vinculin, and 1:1000 for other proteins) and incubated with the membranes overnight at 4 °C. Membranes were washed with PBS + 0.1% Tween 20 (PBS-T) five times and incubated with secondary antibodies conjugated to IRDye® Infrared Fluorescent Dyes (1:5000, LI-COR Biosciences) at room temperature for 1 h with protection from light. After washing the membrane, signals were visualized using the ChemiDoc MP Imaging System (BIO-RAD Laboratories). For detection of LC3B, BRD3, BLK, DCAF11, DDB1 RBX1, FIP200, V5- and FLAG-Tag the membranes were blocked with 5% milk in PBS-T at room temperature for 1 h. The primary antibodies for these proteins were diluted in 5% milk in PBS-T buffer (1:200 for BRD3, 1:1000 for other proteins) and incubated with the membranes overnight at 4 °C. Membranes were washed with PBS-T five times and incubated with HRP secondary antibodies (1:1500) at room temperature for 1 h. After washing the membrane, protein detection was performed using Western blotting detection reagent (Thermo Scientific, 34095) and the ChemiDoc MP Imaging System (BIO-RAD). Relative band intensities were quantified using Image Lab (BIO-RAD).

BRD2 and DCAF11 = target: T2, BRD2 and DCAF11 (Homo sapiens, UniProt P25440+Q8TEB1); test: Co-immunoprecipitation of FLAG-BRD2 and HA-DCAF11 in Hep G2 cells; format: cell-based; conditions: MG-132 10 μM, 40 min, compound 10 μM
T2 construct: expressed in transfected cells; host or cells: Hep G2
Protocol: Hep G2 cells were seeded in 6-well plates, 24 h later, cells were transiently transfected with HA-DCAF11 (Sino Biological, HG16257-NY) and FLAG-BRD2 for 48 h using the FuGENE® HD transfection reagent (Promega, E2311). […] After determination of the protein concentration, cell lysates were incubated with anti-FLAG magnetic beads (30 μl / sample, Sigma, M8823) at 4 °C for 4 h and washed three times with washing buffer (0.2% NP-40, 25 mM Tris-HCl pH 7.4, 150 mM NaCl). The beads were diluted with PBS, mixed with SDS sample buffer and heated at 95 °C for 10 min, followed by western blot analysis.

Row | BRD2 depletion in Hep G2 and MDA-MB-231 cells (BRD2; 4 h) | SMILES | GI50 (Hep G2 cells) | PDEδ protein levels, ligands alone or in combination (PDEδ) | competition of DCAF11 enrichment by probe 14 (DCAF11 [1]) | competition of DCAF11 labelling by 18 (DCAF11 [2]) | BRD2 degradation after siRNA-mediated depletion of RBX1 (BRD2; MDA-MB-231 cells, RBX1 siRNA 30 nM, 48 h, 3 μM compound 9, 4 h) | complex formation between BRD2 and DCAF11 (co-immunoprecipitation) (BRD2 and DCAF11)
1 | – | O=C1Nc2ccc(Br)cc2C1=Cc1cc(Br)c(O)c(Br)c1 [Compound 2] | > 30 µM | did not reduce PDEδ protein levels | reduced the enrichment | binding is prevented | – | –
2 | BRD2 depletion was also observed | Cc1sc2c(c1C)C(c1ccc(Cl)cc1)=N[C@@H](CC(=O)NCCOCCOCCOCCOCCNC(=O)COc1c(Br)cc(/C=C3\C(=O)Nc4ccc(Br)cc43)cc1Br)c1nnc(C)n1-2 [Compound 9] | – | – | – | – | did not induce degradation of BRD2 anymore | mediates complex formation between BRD2 and DCAF11
